This is an account of results in paper PMC4933878 (2016).

The subject of this experiment is c-myc pu22 DNA (c-myc G-quadruplex DNA) (DNA, G4) TGGGGAGGGTGGGGAGGGTGGGGAAGG
The experiment is described as follows: UV-vis absorption titration (hypochromism). The following applies: 100 mM KCl; Tris-HCl, pH 7.2; 20 μM compound; hypochromism MLCT 14.6%, IL 38.9%; constant not given.

In the case of `C(#Cc1ccc(-c2nc3c4cccnc4c4ncccc4c3[nH]2)cc1)c1ccccc1.[Ru+2].c1ccc(-c2ccccn2)nc1.c1ccc(-c2ccccn2)nc1`, the binding entry is on record as “yes”.
